Test system: SARS-CoV-2
Test: microbe, parasite or virus in culture
Settings: Severe acute respiratory syndrome coronavirus 2, Vero C1008, 48 h

SMILES	IC50 [µM]	IC50 (read-out: pIC50 (converted)) [µM]
CC(=O)OCC(=O)[C@@]1(O)CC[C@H]2[C@@H]3CCC4=CC(=O)CC[C@]4(C)[C@H]3C(=O)C[C@@]21C [CORTISONE ACETATE]	> 20	> 20
C[C@]12CCC(=O)C=C1CC[C@@H]1[C@@H]2CC[C@@]2(C)[C@H]1CC[C@]2(O)C(=O)CO [CORTODOXONE]	> 20	> 20
COc1c2c(cc3c1OCO3)CC[N+](C)=C2 [COTARNINE]	> 20	> 20
CN1C(=O)CC[C@H]1c1cccnc1 [COTININE]	> 20	> 20
CCOP(=S)(OCC)Oc1ccc2c(C)c(Cl)c(=O)oc2c1 [COUMAPHOS]	> 20	> 20
O=c1ccc2ccccc2o1 [COUMARIN]	> 20	> 20
CC(=O)Nc1ccc(C(=O)NC(C)(C)C)cc1 [CP1-1189]	> 20	> 20
COc1ccccc1CN[C@H]1CCCN[C@H]1c1ccccc1 [CP-99994]	> 20	> 20
COCC(=O)NC/C=C/c1ccc2ncnc(Nc3ccc(Oc4ccc(C)nc4)c(C)c3)c2c1 [CP-724714]	> 20	> 20
CCc1nc2c(N)nc3ccccc3c2n1CCCCNS(C)(=O)=O [CPG-52852]	> 20	> 20
O=C(O)CCCCC(CCSCc1ccccc1)SCc1ccccc1 (stereo not drawn) [CPI 613]	> 20	> 20
COc1cc(C)[nH]c(=O)c1CNC(=O)c1c(C)n([C@H](C)C2CCN(CC(F)(F)F)CC2)c2ccccc12 [CPI-1205]	> 20	> 20
CNC(=O)c1nnc(NC(=O)C2CC2)cc1Nc1cccc(-c2ncn(C)n2)c1OC [CRAVACITINIB]	> 20	> 20
CN(CC(=O)O)C(=N)N [CREATINE]	> 20	> 20
CN1CC(=O)NC1=N [CREATININE]	> 20	> 20
CC1(COc2ccc3c(c2)ncn3-c2ccc3cccc(N4CCC(N)CC4)c3n2)COC1 [CRENOLANIB]	> 20	> 20
C[C@@H](Oc1cc(-c2cnn(C3CCNCC3)c2)cnc1N)c1c(Cl)ccc(F)c1Cl [CRIZOTINIB]	> 20	> 20
O=C(O)c1cc(=O)c2c(OCC(O)COc3cccc4oc(C(=O)O)cc(=O)c34)cccc2o1 [CROMOLYN]	> 20	> 20
CC(C)c1cnn2c(NCc3ccccc3)cc(NC[C@H]3CCNC[C@@H]3O)nc12 [CT-7001]	> 20	> 20
CN(C)c1cc2c(cc1Sc1nc3c(N)nccc3n1CCNCC(C)(C)C)OCO2 [CUDC-305]	> 20	> 20
O=C(c1ccc2nccnc2c1)N1CCCCC1 [CX516]	> 20	> 20
O=C(c1ccc2nonc2c1)N1CCOCC1 [CX-717]	> 20	> 20

SMILES	IC50 [µM]	IC50 (read-out: pIC50 (converted)) [µM]
N#CCC(=O)NN [CYACETACIDE]	> 20	> 20
Oc1cc(O)c2cc(O)c(-c3ccc(O)c(O)c3)[o+]c2c1 [CYANIDIN]	> 20	> 20
CC1(C)S[C@@H]2[C@H](NC(=O)C3(N)CCCCC3)C(=O)N2[C@H]1C(=O)O [CYCLACILLIN]	> 20	> 20
O=S(=O)(O)NC1CCCCC1 [CYCLAMIC ACID]	> 20	> 20
CC1CC(OC(=O)C(O)c2ccccc2)CC(C)(C)C1 (stereo not drawn) [CYCLANDELATE]	> 20	> 20
CN(C)C1CCc2[nH]c3ccccc3c2C1 (stereo not drawn) [CYCLINDOLE]	> 20	> 20
CN1CCN(C(c2ccccc2)c2ccccc2)CC1 [CYCLIZINE]	> 20	> 20
COC(=O)Nc1nc2ccc(C(=O)C3CC3)cc2[nH]1 [CYCLOBENDAZOLE]	> 20	> 20
CN(C)CCC=C1c2ccccc2C=Cc2ccccc21 [CYCLOBENZAPRINE]	> 20	> 20
CC(=O)Oc1ccc(C(=C2CCCCC2)c2ccc(OC(C)=O)cc2)cc1 [CYCLOFENIL]	> 20	> 20
CC1(C)N=C(N)N=C(N)N1c1ccc(Cl)cc1 [CYCLOGUANIL]	> 20	> 20
NC1CCCCC1 [CYCLOHEXYLAMINE]	> 20	> 20
NC1(C(=O)O)CCCC1 [CYCLOLEUCINE]	> 20	> 20
CNC(C)CC1CCCC1 (stereo not drawn) [CYCLOPENTAMINE]	> 20	> 20
NS(=O)(=O)c1cc2c(cc1Cl)NC(CC1CCCC1)NS2(=O)=O (stereo not drawn) [CYCLOPENTHIAZIDE]	> 20	> 20
CN(C)CCOC(=O)C(c1ccccc1)C1(O)CCCC1 (stereo not drawn) [CYCLOPENTOLATE]	> 20	> 20
FC(F)(F)c1ccc2c(c1)N(CCCN1CCN(C3CC3)CC1)c1ccccc1S2 [CYCLOPHENAZINE]	> 20	> 20
O=P1(N(CCCl)CCCl)NCCCO1 (stereo not drawn) [CYCLOPHOSPHAMIDE ANHYDROUS]	> 20	> 20
N[C@@H]1CONC1=O [CYCLOSERINE]	> 20	> 20
NS(=O)(=O)c1cc2c(cc1Cl)NC(C1CC3C=CC1C3)NS2(=O)=O (stereo not drawn) [CYCLOTHIAZIDE]	> 20	> 20
COc1cc(/C=C2\CCC/C(=C\c3ccc(O)c(OC)c3)C2=O)ccc1O [CYCLOVALONE]	> 20	> 20
OC(CCN1CCCCC1)(c1ccccc1)C1CCCC1 (stereo not drawn) [CYCRIMINE]	> 20	> 20

SMILES	IC50 [µM]	IC50 (read-out: pIC50 (converted)) [µM]
[O-][N+]1=C(c2ccccc2)c2cc(Cl)ccc2N=C(NCC2CC2)C1 [CYPRAZEPAM]	> 20	> 20
CN1CCC(=C2c3ccccc3C=Cc3ccccc32)CC1 [CYPROHEPTADINE]	> 20	> 20
CC(=O)O[C@]1(C(C)=O)CC[C@H]2[C@@H]3C=C(Cl)C4=CC(=O)[C@@H]5C[C@@H]5[C@]4(C)[C@H]3CC[C@@]21C [CYPROTERONE ACETATE]	> 20	> 20
CC(=O)[C@@]1(O)CC[C@H]2[C@@H]3C=C(Cl)C4=CC(=O)[C@@H]5C[C@@H]5[C@]4(C)[C@H]3CC[C@@]21C [CYPROTERONE]	> 20	> 20
Nc1nc(N)nc(NC2CC2)n1 [CYROMAZINE]	> 20	> 20
NCCS [CYSTEAMINE]	> 10	> 10
N[C@@H](CS)C(=O)O [CYSTEINE]	> 20	> 20
O=c1cccc2n1C[C@@H]1CNC[C@H]2C1 [CYTISINICLINE]	> 20	> 20
N[C@H](Cc1c[nH]cn1)C(=O)O [D-HISTIDINE]	> 20	> 20
CCCCCCOC(=O)NC(=N)c1ccc(NCc2nc3cc(C(=O)N(CCC(=O)OCC)c4ccccn4)ccc3n2C)cc1 [DABIGATRAN ETEXILATE]	> 20	> 20
CC(C)(C)c1nc(-c2cccc(NS(=O)(=O)c3c(F)cccc3F)c2F)c(-c2ccnc(N)n2)s1 [DABRAFENIB]	> 20	> 20
COc1cc2ncnc(Nc3ccc(F)c(Cl)c3)c2cc1NC(=O)/C=C/CN1CCCCC1 [DACOMITINIB ANHYDROUS]	> 20	> 20
NC(=O)c1ccn2c1CS[C@@H]2c1cccnc1 [DACOPAFANT]	> 20	> 20
Cn1c(=O)n(-c2ccc(C(C)(C)C#N)cc2)c2c3cc(-c4cnc5ccccc5c4)ccc3ncc21 [DACTOLISIB]	> 20	> 20
O=c1c(-c2ccc(O)cc2)coc2cc(O)ccc12 [DAIDZEIN]	> 20	> 20
CCC(CC)CC1(C(=O)Nc2ccccc2SC(=O)C(C)C)CCCCC1 [DALCETRAPIB]	> 20	> 20
CCNC(=O)NCCCOc1cccc(CN2CCCCC2)c1 [DALCOTIDINE]	> 20	> 20
Nc1ccncc1 [DALFAMPRIDINE]	> 20	> 20
C#C[C@]1(O)CC[C@H]2[C@@H]3CCC4=Cc5oncc5C[C@]4(C)[C@H]3CC[C@@]21C [DANAZOL]	> 20	> 20
O=C1c2cccc(O)c2C(=O)c2c(O)cccc21 [DANTHRON]	> 20	> 20
